# Assay results reported in patent publication US5843902A, “Methods for treating prostate cancer with LHRH antagonists” (Praecis Pharmaceuticals Incorporated, priority 1996, dated 1998).
# Square brackets hold non-standard residues; d marks the D form. Peptide text beside a SMILES is read from it. dPhe(4-Cl) = N[C@H](Cc1ccc(Cl)cc1)C(=O)O; d2Nal = N[C@H](Cc1ccc2ccccc2c1)C(=O)O; Lys(iPr) = CC(C)NCCCC[C@H](N)C(=O)O; NMeY = CN[C@@H](Cc1ccc(O)cc1)C(=O)O; d3Pal = N[C@H](Cc1cccnc1)C(=O)O
# Key:
# male cynomolgus monkeys = test: Plasma testosterone in male cynomolgus monkeys given PPI-149 by osmotic pump, then depot leuprolide; format: in vivo; settings: cynomolgus monkey
# Experimental: In a second series of experiments, male cynomolgus monkeys were administered the LHRH antagonist PPI-149 via a subcutaneous continuous osmotic minipump (Alzet pump; Alza, Palo Alto, Calif.) at a dose of 0, 30, 100 or 300 μg/kg/day for a period of 28 days. On day 28, pumps were removed and monkeys were administered a single intramuscular dose of the depot, sustained-release (one-month) formulation of Luprong, equivalent to 0.16 mg/kg. This dose of leuprolide is 1.6 times that used in the treatment of prostate cancer in humans (0.1 mg/kg) and 3.2 times that used in the treatment of endometriosis (0.05 mg/kg).
# adult male rats = test: Plasma testosterone in adult male rats given PPI-149 by osmotic pump, then leuprolide; format: in vivo, rat; settings: for prevention of leuprolide-induced testosterone surge / suppression of plasma testosterone levels: rat
# Experimental: In a first series of experiments, adult male rats were first administered an LHRH antagonist having the structure:
# (referred to herein as PPI-149). PPI-149 was administered via a subcutaneous continuous osmotic minipump (e.g., the Alzet pump, commercially available from Alza, Palo Alto, Calif.) at a dose of 15 μg/kg/day or 50 μg/kg/day. PPI-149 administration continued for a total of 15-28 days according to several different protocols. A second pump releasing leuprolide (trade name: Lupron®) at 1.8 μg/kg/day was implanted such that there was an overlap of 0, 1 or 7 days with the previously-implanted pump releasing PPI-149.
# In the experiment shown in FIG. 1, PPI-149 (at 15 μg/kg/day or 50 μg/kg/day) was administered by osmotic pump for 28 days and then this pump was removed and a second pump administering leuprolide (at 1.8 μg/kg/day) was implanted such that there was no overlap between the antagonist and agonist treatment. Plasma testosterone levels (in ng/ml) were measured during the prolonged administration of PPI-149 alone and following replacement of the PPI-149 pump with the leuprolide pump.
# In the experiment shown in FIG. 2, PPI-149 (at 50 μg/kg/day) was administered by osmotic pump for 15 days and then a second pump administering leuprolide (at 1.8 μg/kg/day) was implanted such that there was one day of overlap between the antagonist and agonist treatment (i.e., the first PPI-149-releasing pump was removed one day after implantation of the second leuprolide-releasing pump). Plasma testosterone levels were measured during the prolonged administration of PPI-149 alone and following removal of the PPI-149 pump when leuprolide alone was administered.
# (§1) In the experiment shown in FIG. 3, PPI-149 (at 15 μg/kg/day or 50 μg/kg/day) was administered by osmotic pump for 28 days and then a second pump administering leuprolide (at 1.8 μg/kg/day) was implanted such that there was one day of overlap between the antagonist and agonist treatment (i.e., the first PPI-149-releasing pump was removed one day after implantation of the second leuprolide-releasing pump). Plasma testosterone levels were measured during the prolonged administration of PPI-149 alone and following removal of the PPI-149 pump when leuprolide alone was administered.
# as §1, with “4,” for “3,”, “were seven days” for “was one day”, “(i e.,” for “(i.e.,”, “seven days” for “one day”
# [1] = PPI-149 50 μg/kg/day osmotic pump 15 days, one day overlap with leuprolide 1.8 μg/kg/day (FIG. 2)
# [2] = PPI-149 50 μg/kg/day osmotic pump 28 days, one day overlap with leuprolide 1.8 μg/kg/day (FIG. 3)
# [3] = PPI-149 50 μg/kg/day osmotic pump 28 days, seven days overlap with leuprolide 1.8 μg/kg/day (FIG. 4)
# [4] = PPI-149 50 μg/kg/day s.c. osmotic pump 28 days, no overlap with leuprolide 1.8 μg/kg/day (FIG. 1)
structure (smiles),measurement,setting,value
"CC(=O)N[C@H](Cc1ccc2ccccc2c1)C(=O)N[C@H](Cc1ccc(Cl)cc1)C(=O)N[C@H](Cc1cccnc1)C(=O)N[C@@H](CO)C(=O)N(C)[C@@H](Cc1ccc(O)cc1)C(=O)N[C@H](CC(N)=O)C(=O)N[C@@H](CC(C)C)C(=O)N[C@@H](CCCCNC(C)C)C(=O)N1CCC[C@H]1C(=O)N[C@H](C)C(N)=O [PPI-149, Ac-D-Nal^1,4-Cl-D-Phe^2, D-Pal^3, N-Me-Tyr^5, D-Asn^6, Lys(iPr)^8, D-Ala^10 -LHRH] (Ac-[d2Nal][dPhe(4-Cl)][d3Pal]S[NMeY][dN]L[Lys(iPr)]P[dA]-NH2)",blockade of testosterone surge from depot Lupron,"male cynomolgus monkeys; PPI-149 100 μg/kg/day 28 days, pump removed, single i.m. one-month depot leuprolide equivalent to 0.16 mg/kg on day 28 (FIG. 5)",complete blockade of the testosterone surge
same,medical castration (plasma testosterone),male cynomolgus monkeys; PPI-149 100 μg/kg/day s.c. osmotic pump 28 days (FIG. 5),"rapid, complete medical castration within the first two days of treatment"
same,prevention of testosterone surge induced by LHRH agonist (summary of FIGS. 1-4),"adult male rats; adult male rats, PPI-149 50 μg/kg/day, 0, 1 or 7 days",can prevent the testosterone surge induced by LHRH agonist administration
same,prevention of leuprolide-induced testosterone surge,adult male rats; [1],prevented the leuprolide-induced testosterone surge
same,suppression of plasma testosterone levels,adult male rats; [1],suppressed plasma testosterone levels to castrate levels
same,prevention of leuprolide-induced testosterone surge,adult male rats; [2],prevented the leuprolide-induced testosterone surge
same,suppression of plasma testosterone levels,adult male rats; [2],suppressed plasma testosterone levels to castrate levels
same,prevention of leuprolide-induced testosterone surge,adult male rats; [3],prevented the leuprolide-induced testosterone surge
same,suppression of plasma testosterone levels,adult male rats; [3],suppressed plasma testosterone levels to castrate levels
same,prevention of leuprolide-induced testosterone surge,adult male rats; [4],prevented the leuprolide-induced testosterone surge
same,suppression of plasma testosterone levels,adult male rats; [4],suppressed plasma testosterone levels to castrate levels
